According to patent US20080125432A1 (Devgen NV, priority 2004, published 2008):

Tests used:
[1] = test system: isolated guinea pig right ventricular papillary muscle; assay: Ex-vivo organ study: functional refractory period in isolated guinea pig right ventricular papillary muscle; details: conc 10^−5 mol/l
From the text: The compounds were checked for their effect on the force of contraction, stimulation threshold and for the Functional Refractory Period (FRP) in isolated rat left atria (Rat LA). Rat left atria functionally express the Kv4.3 ion channel, producing the Ito current of the action potential. […] The guinea pig action potential is dominated by hERG like ion channels for the refractory currents. Consequently, activity of hERG channels in vivo should be seen in GP pap muscle preparations.
Method: Rat LA (Same Method Applies to GP pap. Muscle)
Left atria were mounted vertically in a two-chambered organ bath containing 100 ml of buffer solution (in mM: NaH2PO4 0.6, MgSO4 0.6, KCl 4.7, NaHCO3 25, glucose 4.5, NaCl-120, CaCl2 2.4). The solution was saturated with and circulated by a gas mixture containing 95% O2 and 5% CO2. The temperature was kept constant at 30° C. […] The isometric force of the preparations was measured by force transducers, connected to amplifiers, documented by a pen recorder and fed into a computer for evaluation. Force of contraction (FC), threshold stimulus (TS) and the functional refractory period (FRP) were measured at baseline (pre), 20 min after addition of compound, and after washout at the end of the experiment. Threshold stimulus, representing excitability of the tissue, was assessed by varying the voltage applied for electrical stimulation. […]

[2] = test system: Isus (Kv1.5 + additional channels); assay: Whole-cell patch clamp in human atrial myocytes: Isus; type: cell-based; details: n = 3 cells
Description: The blocking profile of the compounds of the invention is determined on the following channels of the human atrial myocytes: INa, Ito, Isus and IK1 channel currents.
Human atrial myocytes: Myocytes were prepared from specimens with grossly normal anatomical aspect, excised from hearts of patients with normal P-wave electrocardiogram, undergoing bypass surgery. Human atrial sample were obtained following approval by the ethical committee. […]
Experiments were performed at room temperature (20-25° C.) for INa and at 32-34° C. for Ito, Isus, IK1. Currents were measured using the whole-cell variant of the patch clamp method. […]
After rupture of the cell membrane to enter the whole-cell mode, current amplitude and kinetics were allowed to stabilize for 3-7 min before initiating the experimental procedure. K^+ currents recorded from human atrial myocytes were elicited by a 500 ms pulse to +60 mV from a holding potential of −50 mV for Ito and Isus. Ito was measured as a peak current amplitude whereas Isus as a current present at the end of the 500 ms voltage pulse. In addition, the area under the curve, before and after compound, were measured over the course of the pulse period. […]

SMILES: COc1ccccc1Nc1nc(C)c(C(=O)N[C@H]2CCC[C@@H]2OCc2ccccc2)s1 [Compound 68, 2-(2-methoxy-phenylamino)-4-methyl-thiazole-5-carboxylic acid (1S,2S)-2-(benzyloxycyclopent-1-yl) amide]
- dFRP Guinea Pig [1]: 0 ms
- Block at 10 μM in %: Isus (Kv1.5 + additional channels) [2]: 55.2 ± 6.4%
